Results: patent US10550105B2 (Ribon Therapeutics Inc., priority 2018, dated 2020)

What follows are compounds tested against PARP7 (Homo sapiens (Human), UniProt Q7Z3E1) (assay: Enzymatic assay for inhibition of PARP7: TR-FRET displacement of biotinylated Probe A from the TIPARP active site). Conditions: Table A-1.
Type: binding
Outline: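 Read-out: 665/615 nm emission ratio (ex 320 nm, 90 μs delay) indexing bound TIPARP–Probe A. Final incubation 30 min, 25° C; compounds in dose response. Curve fit of % inhibition vs concentration; Hill slope floating or fixed at 1 (3-parameter).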

PARP7, sequence (Q7Z3E1 whole entry): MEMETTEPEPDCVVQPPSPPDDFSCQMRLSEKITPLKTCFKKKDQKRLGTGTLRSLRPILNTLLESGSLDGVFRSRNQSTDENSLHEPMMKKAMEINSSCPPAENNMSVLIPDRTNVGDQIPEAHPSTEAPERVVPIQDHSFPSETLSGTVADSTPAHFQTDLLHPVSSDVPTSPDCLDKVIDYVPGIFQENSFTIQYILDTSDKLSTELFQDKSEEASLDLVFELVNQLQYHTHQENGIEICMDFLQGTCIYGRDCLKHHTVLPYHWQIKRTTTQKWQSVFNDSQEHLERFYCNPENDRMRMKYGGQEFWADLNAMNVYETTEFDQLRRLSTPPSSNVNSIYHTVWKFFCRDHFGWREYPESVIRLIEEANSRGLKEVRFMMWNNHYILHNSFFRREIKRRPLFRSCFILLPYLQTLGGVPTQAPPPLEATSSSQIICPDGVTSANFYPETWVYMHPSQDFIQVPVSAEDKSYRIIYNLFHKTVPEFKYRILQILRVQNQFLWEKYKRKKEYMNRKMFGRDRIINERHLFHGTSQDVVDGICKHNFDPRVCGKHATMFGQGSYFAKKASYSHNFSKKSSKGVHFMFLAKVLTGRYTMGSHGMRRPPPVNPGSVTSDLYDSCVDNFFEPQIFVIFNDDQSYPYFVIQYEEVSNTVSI

IC50 [nM] | Compound
< 100 | O=c1[nH]ncc(N2Cc3cccc(OC[C@H]4CCCO4)c3C2)c1C(F)(F)F [Example 223, (R)-5-(4-((Tetrahydrofuran-2-yl)methoxy)isoindolin-2-yl)-4-(trifluoromethyl)pyridazin-3(2H)-one]
100 to 1000 | O=C(C[C@H]1CC[C@@H](COc2cn[nH]c(=O)c2Cl)O1)N1CCN(c2ncc(Cl)cn2)CC1 (single isomer, unassigned) [Example 566 Isomer C]
< 100 | N#Cc1ccc(N2CCN(C(=O)C[C@@H](N)COC[C@@H]3CCCN3c3cn[nH]c(=O)c3C(F)(F)F)CC2)nc1 [Example 145A, 6-[4-[(3R)-3-amino-4-[[(2S)-1-[6-oxo-5-(trifluoromethyl)-1,6-dihydropyridazin-4-yl]pyrrolidin-2-yl]methoxy]butanoyl]piperazin-1-yl]pyridine-3-carbonitrile; formic acid]
< 100 | C[C@@H](COCCC(=O)N1CCN(c2ccccn2)CC1)Nc1cn[nH]c(=O)c1C(F)(F)F [Example 675, (S)-5-((1-(3-Oxo-3-(4-(pyridin-2-yl)piperazin-1-yl)propoxy)propan-2-yl)amino)-4-(trifluoromethyl)pyridazin-3(2H)-one]
< 100 | O=C(CCOC[C@@H]1CCCN1c1cn[nH]c(=O)c1C(F)(F)F)N1CCN(c2ncc(Cl)cn2)CC1 [Example 482, (S)-5-(2-((3-(4-(5-Chloropyrimidin-2-yl)piperazin-1-yl)-3-oxopropoxy)methyl)pyrrolidin-1-yl)-4-(trifluoromethyl)pyridazin-3(2H)-one]
≥ 1000 | N#Cc1cnc(N2CCN(C(=O)c3cccc(OC[C@H]4CCCN4c4cn[nH]c(=O)c4C(F)(F)F)c3)CC2)nc1 [Example 438, (R)-2-(4-(3-((1-(6-Oxo-5-(trifluoromethyl)-1,6-dihydropyridazin-4-yl)pyrrolidin-2-yl)methoxy)benzoyl)piperazin-1-yl)pyrimidine-5-carbonitrile]
< 100 | N#CCCC(=O)N1CCN(C(=O)CCOC[C@@H]2c3ccccc3CN2c2cn[nH]c(=O)c2C(F)(F)F)CC1 [Example 423, (S)-4-Oxo-4-(4-(3-((2-(6-oxo-5-(trifluoromethyl)-1,6-dihydropyridazin-4-yl)isoindolin-1-yl)methoxy)propanoyl)piperazin-1-yl)butanenitrile]
< 100 | N#Cc1ccc(N2CCN(C(=O)C[C@H]3CC[C@H](CNc4cn[nH]c(=O)c4C(F)(F)F)O3)CC2)nc1 [Example 581 Isomer C, 6-(4-[2-[(2R,5R)-5-([[6-oxo-5-(trifluoromethyl)-1,6-dihydropyridazin-4-yl]amino]methyl)oxolan-2-yl]acetyl]piperazin-1-yl)pyridine-3-carbonitrile]
< 100 | C[C@@H](COCCC(=O)N1CCN(c2ccc(CN)cn2)CC1)Oc1cn[nH]c(=O)c1C(F)(F)F [Example 673, (S)-5-((1-(3-(4-(5-(Aminomethyl)pyridin-2-yl)piperazin-1-yl)-3-oxopropoxy)propan-2-yl)oxy)-4-(trifluoromethyl)pyridazin-3(2H)-one]
< 100 | N#Cc1ccc(N2CCN(C(=O)CCCOC[C@@H]3CCCN3c3cn[nH]c(=O)c3C(F)(F)F)CC2)nc1 [Example 77, 6-[4-(4-[[(2S)-1-[6-oxo-5-(trifluoromethyl)-1,6-dihydropyridazin-4-yl]pyrrolidin-2-yl]methoxy]butanoyl)piperazin-1-yl]pyridine-3-carbonitrile]
100 to 1000 | C[C@@H](CNCCC(=O)N1CCN(c2ncc(C(F)(F)F)cn2)CC1)Oc1cn[nH]c(=O)c1C(F)(F)F [Example 615, (S)-5-((1-((3-Oxo-3-(4-(5-(trifluoromethyl)pyrimidin-2-yl)piperazin-1-yl)propyl)amino)propan-2-yl)oxy)-4-(trifluoromethyl)pyridazin-3(2H)-one]
< 100 | C[C@@H]1CN(c2ccc(C#N)cn2)CCN1C(=O)CCOC[C@@H]1CCCN1c1cn[nH]c(=O)c1C(F)(F)F [Example 100A, 6-[(3R)-3-methyl-4-(3-[[(2S)-1-[6-oxo-5-(trifluoromethyl)-1,6-dihydropyridazin-4-yl]pyrrolidin-2-yl]methoxy]propanoyl)piperazin-1-yl]pyridine-3-carbonitrile]
< 100 | COC[C@@H](COCCC(=O)N1CCN(c2ncc(C(F)(F)F)cn2)CC1)Oc1cn[nH]c(=O)c1Br [Example 666, (S)-4-Bromo-5-((1-methoxy-3-(3-oxo-3-(4-(5-(trifluoromethyl)pyrimidin-2-yl)piperazin-1-yl)propoxy)propan-2-yl)oxy)pyridazin-3(2H)-one]
≥ 1000 | CC(C)c1c(N2Cc3ccc(O[C@@H]4CCCNC4)cc3C2)cn[nH]c1=O [Example 292, (R)-4-Isopropyl-5-(5-(piperidin-3-yloxy)isoindolin-2-yl)pyridazin-3(2H)-one]
100 to 1000 | O=c1[nH]ncc(N2Cc3cccc(OCCN4CCNCC4)c3C2)c1Cl [Example 220, 4-Chloro-5-(4-(2-(piperazin-1-yl)ethoxy)isoindolin-2-yl)pyridazin-3(2H)-one]
< 100 | N#Cc1ccc(N2CCN(C(=O)CCOCCOCC3CCN(c4cn[nH]c(=O)c4C(F)(F)F)C3)CC2)nc1 (stereo not shown) [Example 466, 6-(4-(3-(2-((1-(6-Oxo-5-(trifluoromethyl)-1,6-dihydropyridazin-4-yl)pyrrolidin-3-yl)methoxy)ethoxy)propanoyl)piperazin-1-yl)nicotinonitrile]
< 100 | COc1ccc2c(c1)CN(c1cn[nH]c(=O)c1C(F)(F)F)C2 [Example 174, 5-(5-Methoxyisoindolin-2-yl)-4-(trifluoromethyl)pyridazin-3(2H)-one]
100 to 1000 | O=C(c1cccc(OC[C@@H]2CCCN2c2cn[nH]c(=O)c2C(F)(F)F)c1)N1CCn2cnnc2C1 [Example 451, (S)-5-(2-((3-(5,6,7,8-Tetrahydro-[1,2,4]triazolo[4,3-a]pyrazine-7-carbonyl)phenoxy)methyl)pyrrolidin-1-yl)-4-(trifluoromethyl)pyridazin-3(2H)-one]
< 100 | C[C@@H](COCCC(=O)N1CCN(c2ncc(C(F)(F)F)cn2)CC1)Sc1cn[nH]c(=O)c1Br [Example 700, (S)-4-Bromo-5-((1-(3-oxo-3-(4-(5-(trifluoromethyl)pyrimidin-2-yl)piperazin-1-yl)propoxy)propan-2-yl)thio)pyridazin-3(2H)-one]
≥ 1000 | NCCOc1cccc2c1CN(c1cn[nH]c(=O)c1Cl)C2 [Example 163, 5-(4-(2-Aminoethoxy)isoindolin-2-yl)-4-chloropyridazin-3(2H)-one]
100 to 1000 | N#Cc1ccc(N2CCC3(CCN(C(=O)CCOC[C@@H]4CCCN4c4cn[nH]c(=O)c4C(F)(F)F)C3)CC2)nc1 [Example 103, 6-[2-(3-[[(2S)-1-[6-oxo-5-(trifluoromethyl)-1,6-dihydropyridazin-4-yl]pyrrolidin-2-yl]methoxy]propanoyl)-2,8-diazaspiro [4.5]decan-8-yl]pyridine-3-carbonitrile]
< 100 | O=C1OCCC1Oc1cccc2c1CN(c1cn[nH]c(=O)c1C(F)(F)F)C2 (stereo not shown) [Example 202, 5-(4-((2-Oxotetrahydrofuran-3-yl)oxy)isoindolin-2-yl)-4-(trifluoromethyl)pyridazin-3(2H)-one]
< 100 | N#Cc1ccc(N2CCN(C(=O)CCCCCNc3cn[nH]c(=O)c3C(F)(F)F)CC2)nc1 [Example 511, 6-[4-(6-[[6-Oxo-5-(trifluoromethyl)-1,6-dihydropyridazin-4-yl]amino]hexanoyl)piperazin-1-yl]pyridine-3-carbonitrile]
< 100 | O=c1[nH]ncc(N2Cc3ccnc(OCc4cccnc4)c3C2)c1C(F)(F)F [Example 15, 5-[4-(pyridin-3-ylmethoxy)-1H,2H,3H-pyrrolo[3,4-c]pyridin-2-yl]-4-(trifluoromethyl)-2,3-dihydropyridazin-3-one]
< 100 | N#Cc1cnc(N2CCN(C(=O)c3cc(OC[C@@H]4c5ccccc5CN4c4cn[nH]c(=O)c4C(F)(F)F)ccn3)CC2)nc1 (single isomer, unassigned) [Example 64 Isomer B]
< 100 | N#Cc1cnc(N2CCN(C(=O)c3cncc(OC[C@@H]4CCCN4c4cn[nH]c(=O)c4C(F)(F)F)c3)CC2)cn1 [Example 444, (S)-5-(4-(5-((1-(6-Oxo-5-(trifluoromethyl)-1,6-dihydropyridazin-4-yl)pyrrolidin-2-yl)methoxy)nicotinoyl)piperazin-1-yl)pyrazine-2-carbonitrile]
< 100 | CC(Nc1cccc2c1CN(c1cn[nH]c(=O)c1C(F)(F)F)C2)c1ccncc1 (stereo not shown) [Example 271, 5-(4-((1-(Pyridin-4-yl)ethyl)amino)isoindolin-2-yl)-4-(trifluoromethyl)pyridazin-3(2H)-one]
< 100 | N#Cc1ccc(N2CCN(C(=O)CCOC[C@H](CO)Oc3cn[nH]c(=O)c3C(F)(F)F)CC2)nc1 (single isomer, unassigned) [Example 573 Isomer C]
< 100 | N#Cc1ccc(N2CCN(C(=O)CCOC[C@H]3c4ncccc4CN3c3cn[nH]c(=O)c3C(F)(F)F)CC2)nc1 [Example 137B, 6-[4-(3-[[(7R)-6-[6-oxo-5-(trifluoromethyl)-1,6-dihydropyridazin-4-yl]-5H,6H,7H-pyrrolo[3,4-b]pyridin-7-yl]methoxy]propanoyl)piperazin-1-yl]pyridine-3-carbonitrile]

Compound | IC50 [nM]
N#Cc1ccc(N2CCN(C(=O)CCNC[C@H]3c4ccccc4CN3c3cn[nH]c(=O)c3C(F)(F)F)CC2)nc1 [Example 146B, 6-[4-[3-([[(1R)-2-[6-oxo-5-(trifluoromethyl)-1,6-dihydropyridazin-4-yl]-2,3-dihydro-1H-isoindo1-1-yl]methyl]amino)propanoyl]piperazin-1-yl]pyridine-3-carbonitrile] | < 100
O=c1[nH]ncc(N2Cc3cccc(Oc4ccncc4)c3C2)c1C(F)(F)F [Example 232, 5-(4-(pyridin-4-yloxy)isoindolin-2-yl)-4-(trifluoromethyl)pyridazin-3(2H)-one trifluoroacetic acid] | < 100
